Results as given in US6835563B1, “Compositions and methods for increasing cholesterol efflux and raising HDL ATP binding cassette transporter protein ABC1” (CV Therapeutics, priority 1999, dated 2004).

Experiments:
[1] = test system: ABC1 5' flanking region with mutated sterol response element; experiment: Luciferase reporter construct 1080-1643 with mutated sterol response element in RAW 264.7 cells; type: cell-based, mouse; conditions: mutated sequence nt 1080-1643, sterol response element mutated
Description: (§1) Luciferase Assay: Following transfection, the cells in each well were lysed in 70 μl of 1× cell lysis reagent (Promega, Madison, Wis., Cat. #E3971), subjected to one freeze-thaw cycle, and the lysate cleared by centrifugation for 5 minutes at 12,000 g. After centrifugation, 100 μl of luciferase assay reagent (Promega, Madison, Wis.; Cat. #E1501) was added to 10 μl of lysate. The luciferase activity of each lysate was measured as light units using a luminometer. Additionally, the β-galactosidase activity of each lysate was measured using the chemiluminescent assay reagents supplied in the Galacto-light kit according to the manufacturer's instructions (Tropix Inc., Bedford, Mass.: Cat. #BL100G). The normalized luciferase activity for each lysate was determined by dividing the luciferase activity value by the determined 0-galactosidase value and reported as relative light units.
Transfection of Reporter Constructs: The RAW 264.7 cells were maintained in culture and transfected with either pGL3-Basic (1 μg), pAPR1 (1 μg), or one of the other reporter constructs according to the method described in Example 15. […] The luciferase activity was measured and reported as relative light units as described in Example 15. […]

ABC1 mRNA = ABC1 mRNA by RT-PCR in RAW 264.7 cells; type: cell-based, mouse; conditions: single ligand 10 μM, 24 hours, serum-free DMEM/BSA
Description: RT-PCR: Quantitative PCR was carried out using the GeneAmp 5700 Sequence. Detection System (Perkin-Elmer Applied Biosystems, Foster City, Calif.). Briefly, 500 ng of DNase-treated mRNA was reverse transcribed using random hexamer primers at 2.5 μM. Approximately 5% of this reaction was amplified by PCR using the SYBR green core kit (PE. Applied Biosystems, Foster City, Calif.; Cat. #4304886) and human ABC1 primers LF: 5′-[…] (SEQ ID NO: 11) and LR: 5′-[…] (SEQ ID NO: 12) to yield an 82 bp fragment corresponding to nucleotides 7018-7099 of human ABC1. PCR cycle conditions were as follows: 10 minutes 95° C.; followed by 40 cycles of 95° C., 15 seconds; and 60° C., 60 seconds. The mRNA in each sample was quantitated by detecting the increase in fluorescence caused by SYBR green binding to the double-stranded amplification product generated during each PCR cycle. All samples were run in triplicate and normalized against 0-actin mRNA, amplified in parallel reactions with primers actinF: 5′-[…] (SEQ ID NO: 54) and actinB: 5′-[…] […]
Mouse RAW 264.7 cells were grown to subconfluence in DMEM/10% FBS and then treated for 24 hours in serum-free DMEM/BSA with either 9-cis retinoic acid (10 μM), 20-hydroxycholesterol (10 μM), or both ligands together (20 μM total). […] RNA was extracted, treated with DNase, and ABC1 mRNA measured by RT-PCR using PE Biosystems SYBR Green Technology as described in Example 9.

ABC1 5' flanking region = experiment: Luciferase reporter constructs with portions of the ABC1 5' flanking region in RAW 264.7 cells; type: cell-based, mouse; conditions: wild-type sequence nt 1080-1643 of SEQ ID NO: 3
Description: as §1
Construction of Reporter Constructs: Reporter construct pAPR1 and control reporter construct pGL3-Basic were obtained as described in Example 15. […]
Transfection of Reporter Constructs: The RAW 264.7 cells were maintained in culture and transfected with either pGL3-Basic (1 μg), pAPR1 (1 μg), or one of the other reporter constructs according to the method described in Example 15. […] The luciferase activity was measured and reported as relative light units as described in Example 15.

normal skin fibroblasts = experiment: Apo A-I-mediated cholesterol efflux after antisense inhibition of ABC1 mRNA; type: cell-based, human; conditions: 30 μM oligonucleotide, apo A-I-mediated efflux after 12 hours
Description: Normal skin fibroblasts were labeled with [^3H]cholesterol as described in Example 1.
The cells were then loaded with oligonucleotide by scraping in the presence of either 30 μM control. Morpholino oligonucleotide (5′-[…]-3′ corresponding to the antisense complement of a β-globin thalassemic mRNA; SEQ ID NO: 52) or […] ABC1 antisense. Morpholino oligonucleotide (5′-[…]-3′; SEQ ID NO: 53) and reseeding on new dishes. Control cells were mock-loaded after [^3H]cholesterol-labeling by scraping and reseeding in the absence of oligonucleotide. […] The results are shown in FIG. 6 as the mean±SEM of three separate experiments, normalized to the value for apo A-I-specific efflux in the absence of oligonucleotide in each experiment.

RAW 264.7 cells = experiment: Apo A-I-mediated cholesterol efflux from cholesterol-loaded RAW 264.7 macrophage cells; conditions: for increase in apoAI-induced cholesterol efflux: 9 cis-retinoic acid 30 ng/ml, 22(R)hydroxycholesterol 5 μg/ml, fenfibrate 3 μg/ml, PGI2 25 nm, PGE1 25 nM
Description: Assay to Measure Lipid Efflux: Apo AI-mediated efflux of cholesterol and, phospholipid was assayed according to the method described in. […] RAW 264.7 cells were cholesterol-loaded through the scavenger receptor by 24-hour incubation with acetylated LDL as described in Smith et al., J. Biol. Chem., 271:30647-30655 (1996). Briefly, RAW 264.7 cells in 24-well dishes were cholesterol-loaded and labeled overnight in 0.5 ml of DMEM supplemented with 50 μl/ml 1M glucose, 10 μl/ml 200 mM glutamine and 2% BSA and with 50 μg/ml acetylated low density lipoprotein (AcLDL) and [^3H]-cholesterol which had been pre-incubated for 30 minutes at 37° C. with AcLDL to yield a final concentration of 0.33 μCi/ml [^3H]-cholesterol. Cells were subsequently washed five times with PBS containing 1% BSA and incubated overnight (16-18 hours) in DMEM/BSA to allow for equilibrium of cholesterol pools. After equilibrium of cholesterol pools, cells were rinsed four times with PBS/BSA and incubated for one hour at 37° C. with DMEM/BSA before the efflux incubations. Efflux medium (DMEM/BSA) containing either albumin alone (control), albumin plus HDL (40 μg protein/ml), or albumin plus apo A-I (10 μg/ml, Biodesign International, Kennebunk, Me.) was added and the cells were incubated for 4, 24, or 48 hours. […] The radioactivity found in the culture medium was measured by scintillation counting after a 15-minute centrifugation at 12,000 g. The radioactivity in the cells was measured by scintillation counting after solubilization in 0.5 ml of 0.2M NaOH (Smith et al., J. Biol. Chem., 271:30647-30655 (1996)) or extraction in hexane:isopropanol (3:2 v/v) as described in Francis, et al., J. Clin. Invest., 96, 78-87 (1995). […] The efflux of cholesterol or phospholipid was expressed as the percentage of tritiated lipid counts in the medium over the total tritiated lipid counts recovered from the cells and medium (cpm medium/cpm (medium+lysate)×100).
Briefly, RAW 264.7 cells suspended at a density of 1.25×10^5 cells/ml were grown in DMEM/10% FBS supplemented with pyruvate. After 24 hours, the medium was removed and replaced with DMEM/BSA plus radiolabeled cholesterol (1 μCi/ml ^3[H]-cholesterol) and 50 μg/ml of acetylated LDL for 24 hours. The cells were then maintained for 24 hours in equilibrium medium consisting of DMEM/BSA plus either apo A-I alone (20 μg/ml), apo A-I and 8-bromo 3′, 5′ cAMP (1 mM) or apo A-I and rolipram (50 μM).

ABC1 promoter = experiment: pAPR1 luciferase reporter under control of the ABC1 promoter in RAW 264.7 cells; type: cell-based, mouse; conditions: pAPR1-transfected RAW 264.7; 10 μM each ligand (20 μM total for both), 24 hours
Source text: Construction of Reporter Plasmids: Plasmid pGL3-Basic (Promega, Madison, Wis.; Cat. #E1751) was used as a control plasmid containing the promoterless luciferase gene. The reporter construct containing the ABC1 promoter and luciferase gene was made by cloning a genomic fragment from the 5′ flanking region of the ABC1 gene (hAPRI 5′ promoter, corresponding to nucleotides 1080-1643 of SEQ ID NO: 3) into the Sacd site of the GL3-Basic plasmid to generate plasmid GL-6a. Next, plasmid GL-6a was digested with SneI and Acc651. […]
as §1, with “After centrifugation, 100 μl of luciferase assay reagent (Promega, Madison, Wis.; Cat. #E1501) was added to 10 μl of lysate.” left out, “units. […]” for “units.”

ABC1 = conditions: dose-dependent; Becq et al. 1997, Hamon et al. 1997; cited from earlier work
normal fibroblasts = experiment: Apo A-I-mediated lipid efflux from normal fibroblasts with ABC1 transport inhibitors; type: cell-based, human; conditions: 0.2 or 0.4 mM, 6 hours, 5 μg/ml apo A-I
Description: To test whether inhibition of ABC1 could affect the process of apolipoprotein-mediated cholesterol efflux, two compounds reported to be ABC1 inhibitors were tested in assays which monitor apolipoprotein mediated cholesterol efflux. […] The apolipoprotein-mediated cholesterol efflux assays were performed as described in Example 1 with the noted changes.
Cholesterol-loaded and [^3H]cholesterol-labeled normal fibroblasts (n=3) were incubated for 6 hours with or without 5 μg/ml apo A-I and either 0, 0.2 mM, or 0.4 mM DIDS. In addition, cholesterol-loaded and [^3H]cholesterol-labeled normal fibroblasts (n=3) were incubated for 6 hours with or without 5 μg/ml apo A-I and either 0, 0.2 mM, or 0.4 mM BSP. […] The results are shown in FIG. 5 as the mean±SD (n=3) of efflux in the presence of apo A-I after subtraction of values for apo A-I-free medium. […] The results of these tests mimic the efflux defect in fibroblasts derived from patients with TD, described in Example 1.

With `CC(C)CCC[C@](C)(O)[C@H]1CC[C@H]2[C@@H]3CC=C4C[C@@H](O)CC[C@]4(C)[C@H]3CC[C@@]21C` [20(S)-hydroxycholesterol] the “transcriptional response (luciferase activity)” value (“transcriptional response” below) [1] was “did not produce a transcriptional response”, the “ABC1 mRNA expression” value (ABC1 mRNA) was “increase in ABC1 mRNA expression” and the “transcriptional response” value (ABC1 5' flanking region) was “produced a transcriptional response”.
With “ABC1 antisense. Morpholino oligonucleotide: Morpholino 5′-CATGTTGTTCATAGGGTGGGTAGCTC-3′; SEQ ID NO: 53, directed against ABC1 mRNA (all phosphorodiamidate morpholino (PMO))” the “reduction in cholesterol efflux compared with control anti-sense oligonucleotide” value (normal skin fibroblasts) was 50%.
With `CCCCC[C@H](O)/C=C/[C@H]1[C@H](O)CC(=O)[C@@H]1CCCCCCC(=O)O` [PGE1, prostaglandin E1] the “increase in apoAI-induced cholesterol efflux” value (RAW 264.7 cells) was ~3 fold.
With `CC(C)CC[C@@H](O)[C@@H](C)[C@H]1CC[C@H]2[C@@H]3CC=C4C[C@@H](O)CC[C@]4(C)[C@H]3CC[C@]12C` [22(R)-hydroxycholesterol] the “transcriptional response” value [1] was “did not produce a transcriptional response”.
With `CC1=C(/C=C/C(C)=C\C=C\C(C)=C\C(=O)O)C(C)(C)CCC1` [9-cis retinoic acid] the “ABC1 mRNA expression” value (ABC1 mRNA) was “increase in ABC1 mRNA expression”, the cholesterol efflux (RAW 264.7 cells; 0.3 ng/ml 9-cis-RA with apo A-I) was 1522 c.p.m and the cholesterol efflux (RAW 264.7 cells; 3.0 ng/ml 9-cis-RA with apo A-I) was 3568 c.p.m. For the same compound, the cholesterol efflux (RAW 264.7 cells; 30 ng/ml 9-cis-RA with apo A-I) was 8597 c.p.m, the “increase in apoAI-induced cholesterol efflux” value (RAW 264.7 cells) was ~3 fold and the “increase in luciferase reporter activity compared with EtOH control” value (ABC1 promoter) was 16 fold. For the same compound, the “transcriptional response” value (ABC1 5' flanking region) was “produced a transcriptional response”.
For `CC(C)OC(=O)C(C)(C)Oc1ccc(C(=O)c2ccc(Cl)cc2)cc1` [fenfibrate], the “increase in apoAI-induced cholesterol efflux” value (RAW 264.7 cells) was ~2 fold.
With `CCCCC[C@H](O)/C=C/[C@@H]1[C@H]2C/C(=C/CCCC(=O)O)O[C@H]2C[C@H]1O` [PGI2, prostacyclin PGI2] the “increase in apoAI-induced cholesterol efflux” value (RAW 264.7 cells) was ~2 fold.
For `O=C1OC(c2ccc(O)c(S(=O)(=O)O)c2)(c2ccc(O)c(S(=O)(=O)O)c2)c2c(Br)c(Br)c(Br)c(Br)c21` [BSP, sulphobromophthaleine], the “anion transport activities of ABC1” value (ABC1) is given as “inhibit” and the “effect on apo A-I-mediated efflux of tritiated cholesterol” value (normal fibroblasts) is given as “inhibit”.
